Like-named read-outs stand apart in the source and are kept apart here.
Columns and labels:
ERK phosphorylation = assay: Analysis of ERK phosphorylation (Alphascreen SureFire Phospho-ERK 1/2); assay type: cell-based, human and mouse; conditions: read-out: Minimum concentration (nM) required for ≧80% inhibition of pERK
Summary of the method: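 Human melanoma and human and mouse colon cancer cells were exposed to compounds for 1 h. Phospho-ERK1/2 was read by AlphaScreen SureFire. Percent inhibition was calculated from RFU relative to vehicle-treated and lysis-buffer controls.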

[1] = tested on: MEK phosphorylation (S218 and S222); assay: Analysis of B-Raf-mediated MEK phosphorylation (Alphascreen SureFire Phospho-MEK); assay type: cell-based, human; conditions: read-out: % Inhibition of MEK phosphorylation, 1 h
Experimental: This assay was carried out with human melanoma cells. Cells were treated for 1 h with various concentrations of test compounds. MEK phosphorylation (S218 and S222) analysis was performed using the Alphascreen SureFire Phospho-MEK Kit (Perkin Elmer), by following the manufacturer's instructions. % inhibition of […] phosphorylation was determined as: 100−{(RFU test−RFU lysis buffer control)/(RFU vehicle treated control−RFU lysis buffer control)}×100.

[2] = cells treated for 1 h, human melanoma cells, human and mouse colon cancer cells
[3] = 1 nM, human melanoma cells, read-out: % Inhibition of MBK phosphorylation
[4] = 10 nM, human melanoma cells, read-out: % Inhibition of MBK phosphorylation
[5] = 100 nM, human melanoma cells, read-out: % Inhibition of MBK phosphorylation

| SMILES | IC80 (ERK phosphorylation; [2]) | inhibition at 0.001 µM [1, 3] | inhibition at 0.01 µM [1, 4] | inhibition at 0.1 µM [1, 5] | IC80 (ERK phosphorylation; 1 h) | inhibition at 0.001 µM ([1]; Homo sapiens) | inhibition at 0.01 µM ([1]; Homo sapiens) | inhibition at 0.1 µM ([1]; Homo sapiens) |
| --- | --- | --- | --- | --- | --- | --- | --- | --- |
| Cc1c(=O)n(C)c(Nc2ccc(I)cc2F)c2c(=O)n(C3CC3)c(=O)n(-c3cccc(C(=O)NC4CC4)c3)c12 [Compound 37, N-cyclopropyl-3-(3-cyclopropyl-5-((2-fluoro-4-iodophenyl)amino)-6,8-dimethyl-2,4,7-trioxo-3,4,6,7-tetrahydropyrido[4,3-d]pyrimidin-1(2H)-yl)benzamide] | 1 to 3 nM | 54.7% | 85.9% | 92.4% | – | – | – | – |
| Cc1c(=O)n(C)c(Nc2ccc(I)cc2F)c2c(=O)n(C)c(=O)n(-c3cccc(OCC(N)=O)c3)c12 [Compound 57, 2-(3-(5-((2-fluoro-4-iodophenyl)amino)-3,6,8-trimethyl-2,4,7-trioxo-3,4,6,7-tetrahydropyrido[4,3-d]pyrimidin-1(2H)-yl)phenoxy)acetamide] | 1 to 3 nM | 63.3% | 76.4% | 83% | – | – | – | – |
| Cc1c(=O)n(C)c(Nc2ccc(I)cc2F)c2c(=O)[nH]c(=O)n(-c3cccc(C4(C(N)=O)CC4)c3)c12 [Compound 77, 1-(3-(5-((2-fluoro-4-iodophenyl)amino)-6,8-dimethyl-2,4,7-trioxo-3,4,6,7-tetra hydropyrido[4,3-d]pyrimidin-1(2H)-yl)phenyl)cyclopropanecarboxamide] | – | – | – | – | 0.1 to 0.9 nM | 49% | 67.8% | 85.5% |
| Cc1c(=O)n(C)c(Nc2ccc(I)cc2F)c2c(=O)n(C3CC3)c(=O)n(-c3cccc(C4(C(N)=O)CC4)c3)c12 [Compound 78, 1-(3-(3-cyclopropyl-5-((2-fluoro-4-iodophenyl)amino)-6,8-dimethyl-2,4,7-trioxo-3,4,6,7-tetrahydropyrido[4,3-d]pyrimidin-1(2H)-yl)phenyl)cyclopropanecarboxamide] | 0.1 to 0.9 nM | 42.6% | 56.7% | 75.4% | – | – | – | – |

Source: US9428499B2, “Heterocyclyl compounds as MEK inhibitors” (LUPIN LIMITED, priority 2012, dated 2016)
